For test [1], the target named is T1, C5a receptor (Homo sapiens, UniProt P21730).
T1 construct: endogenous in cells; host or cells: fresh human polymorphonuclear leukocytes (PMNs), intact cells
T1 sequence (P21730 1-350): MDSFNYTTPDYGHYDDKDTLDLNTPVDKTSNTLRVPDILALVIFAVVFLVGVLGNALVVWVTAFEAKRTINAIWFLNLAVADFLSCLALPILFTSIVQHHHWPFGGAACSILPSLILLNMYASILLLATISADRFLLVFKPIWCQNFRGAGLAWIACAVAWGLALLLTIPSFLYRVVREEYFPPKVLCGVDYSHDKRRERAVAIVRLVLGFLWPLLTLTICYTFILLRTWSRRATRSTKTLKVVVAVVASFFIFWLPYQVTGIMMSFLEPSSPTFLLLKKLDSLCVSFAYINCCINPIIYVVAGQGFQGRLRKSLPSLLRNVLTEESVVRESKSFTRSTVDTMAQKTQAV
The experiment in a line: Myeloperoxidase release from human PMNs mediated by 100 nM C5a (antagonist potency). The format is cell-based. Particulars: for IC50: 50% inhibition of C5a (100 nM)-caused release of MPO from PMNs, mean ± SE, read-out: pD2 ± SE (antagonist potency) (converted).

The target of test [2] is T1, C5a receptor. The experiment in a line: Agonist activity in human PMNs. The format is cell-based. The protocol:
Cells were isolated as previously described (Sanderson et al, 1995) and incubated with cytochalasin B (5 μg/mL, 15 min, 37° C.). Hank's Balanced Salt solution containing 0.15% gelatin and peptide was added on to a 96 well plate (total volume 100 μL/well), followed by 25 μL cells (4×10^6/mL). To assess the capacity of each peptide to antagonise C5a, cells were incubated for 5 min at 37° C. with each peptide, followed by addition of C5a (100 nM) and further incubation for 5 min. Then 50 μL of sodium phosphate (0.1M, pH 6.8) was added to each well, the plate was cooled to room temperature, and 25 μL of a fresh mixture of equal volumes of dimethoxybenzidine (5.7 mg/mL) and H2O2 (0.51%) was added to each well. The reaction was stopped at 10 min by addition of 2% sodium azide. Absorbances were measured at 450 nm in a Bioscan 450 plate reader, corrected for control values (no peptide), and analysed by non-linear regression.

Test [3] addresses T2, C5aR (Homo sapiens, UniProt P21730).
T2 construct: endogenous in cells; host or cells: fresh human polymorphonuclear leukocytes (PMNs), intact cells
T2 sequence (P21730 1-350): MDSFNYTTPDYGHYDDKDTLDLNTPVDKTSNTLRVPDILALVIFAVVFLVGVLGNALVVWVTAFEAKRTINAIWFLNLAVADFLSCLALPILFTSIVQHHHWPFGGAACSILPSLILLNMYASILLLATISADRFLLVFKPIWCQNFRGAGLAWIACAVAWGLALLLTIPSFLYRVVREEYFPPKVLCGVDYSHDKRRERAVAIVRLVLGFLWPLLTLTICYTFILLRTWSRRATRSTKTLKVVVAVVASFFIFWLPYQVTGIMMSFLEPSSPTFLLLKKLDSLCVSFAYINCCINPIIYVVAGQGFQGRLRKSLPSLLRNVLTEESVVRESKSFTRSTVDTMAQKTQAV
Put plainly: Receptor-binding assay: inhibition of 125I-C5a binding to intact human PMNs.

The test system of test [4] is carrageenan-induced paw oedema in Wistar rats. Put plainly: Carrageenan-induced rat paw oedema. The format is in vivo. Particulars: 1 mg/kg i.p. 30 min prior to carrageenan, after 180 and 270 min. The protocol:
Alternatively, a routine carrageenan paw oedema was developed in Wistar rats by administering a pedal injection of carrageenan to elicit oedema which is visible in 2 h and maximised in 4 h. […] See Fairlie, D. P. et al (1987). Also see Walker and Whitehouse (1978).
Paw swelling was measured for up to 4.5 hr.
Background: The carrageenan paw model is a standard test of acute inflammation.

The target of test [5] is T1, C5a receptor. Particulars: human PMN; C5a agonist analogues; read-out: PMN Enzyme Release EC50; cited from earlier work.
The test system of a further test is human fetal artery. Particulars: C5a agonist analogues; cited from earlier work.
Test [6] addresses T2, C5aR. Particulars: cited from earlier work.
Test [7] has as its system LPS-induced neutropenia in Wistar rats. Put plainly: LPS-induced neutropenia and haematocrit change. The format is in vivo. The protocol:
LPS causes rapid neutropenia in rats. If this effect of LPS is blocked by C5a antagonists, then C5a may be of major importance in the acute effects of LPS, and the results shown in FIG. 9 were in agreement with this hypothesis. C5a antagonists were injected (bolus i.v.) 10 min prior to challenge with LPS. Rats were anaesthetised, and blood samples (0.3 ml) were taken for measurements of PMNs. PMNs are isolated and quantified.

Test [8] concerns C5a-induced neutropenia in Wistar rats. The experiment in a line: C5a-induced neutropenia in vivo. Particulars: 1 mg/kg i.v. given prior to 2 μg C5a i.v. The protocol:
Compounds were evaluated in an acute model of C5a-induced neutropenia. Transient neutropenia maximises 5 min after i.v. C5a and is profound, with >90% of circulating neutrophils disappearing from circulation at effective doses of C5a, as shown in FIG. 8. The neutropenia is due to transient adherence of circulating neutrophils to the vascular endothelium.

[9] abbreviates: dose range 0.1 nM-1 mM, human PMNs.
Where [10] appears, read: 50% inhibition in the binding of [125I]C5a to intact PMNs, mean ± SE, read-out: pD2 ± SE (binding) (converted).
Where [11] appears, read: PMN C5aR, Finch et al, 1997, read-out: Binding Affinity IC50.

Usually EC50 stands for the concentration at which the effect is half-maximal.

Read-outs that look alike come from different tables or passages of the source. Where a SMILES comes first, the peptide text is derived from it. [ ]: non-standard residue; d: D form. dCha = N[C@H](CC1CCCCC1)C(=O)O

For the molecule `CN[C@@H](Cc1ccccc1)C(=O)N[C@@H](CCCCN)C(=O)N1CCC[C@H]1C(=O)N[C@H](CC1CCCCC1)C(=O)N[C@@H](Cc1c[nH]c2ccccc12)C(=O)N[C@H](CCCNC(=N)N)C(=O)O` [Compound 7, N-methylphenylalanine-lysine-proline-D-cyclohexylalanine-tryptophan-D-arginine, reference compound], the “antagonist activity against C5a and agonist decapeptide analogue 4” value on C5a receptor [1] (human PMNs) was “shows antagonist activity”. Besides, the “Agonist Activity” value at C5a receptor [2] (setting [9]) is recorded as “no agonist properties”; at C5a receptor [2] (dose range 0.1 nM-1 mM, human PMNs, listed as SEQ. ID NO: 7) it was “No”.

`CN[C@@H](Cc1ccccc1)C(=O)N[C@@H](CCCCN)C(=O)N1CCC[C@H]1C(=O)N[C@H](CC1CCCCC1)C(=O)N[C@@H](Cc1c[nH]c2ccccc12)C(=O)N[C@H](CCCNC(=N)N)C(N)=O` [Compound 8, MeFKP(dCha) Wr-CONH2]: the “reduction of antagonist activity versus 7” value at C5a receptor [1] (conversion to the amide) is “approximately 5 fold”. Further, the “Agonist Activity” value on C5a receptor [2] (setting [9]) is on record as “No”. The “reduction of receptor-affinity versus 7” value at C5aR [3] (conversion to the amide) is listed as “approximately 5 fold”.

As to `CN[C@@H](Cc1ccccc1)C(=O)N[C@@H](CCCCN)C(=O)N1CCC[C@H]1C(=O)N[C@H](CC1CCCCC1)C(=O)N[C@@H](Cc1c[nH]c2ccccc12)C(=O)N[C@@H](CCCNC(=N)N)C(=O)O` [Compound 9, MeFKP(dCha)WR], at C5a receptor [2] (setting [9]), the “Agonist Activity” value is “No”.

`CC(=O)N[C@@H](Cc1ccccc1)C(=O)N[C@H]1CCCCNC(=O)[C@@H](CCCNC(=N)N)NC(=O)[C@H](Cc2c[nH]c3ccccc23)NC(=O)[C@@H](CC2CCCCC2)NC(=O)[C@@H]2CCCN2C1=O` [Compound 11, Ac-F-[KP(dCha)Wr]: the “Agonist Activity” value at C5a receptor [2] (Table 5, cyclic molecules) is on record as “No”; on C5a receptor [2] (setting [9]) it was “No”.

As for `CC(=O)N[C@@H](Cc1ccccc1)C(=O)N[C@H]1CCCNC(=O)[C@@H](CCCNC(=N)N)NC(=O)[C@H](Cc2c[nH]c3ccccc23)NC(=O)[C@@H](CC2CCCCC2)NC(=O)[C@@H]2CCCN2C1=O` [Compound 12, Ac-F-[OP(dCha)Wr], on C5a receptor [1], the “times less active than 17 in vitro as a C5a antagonist in PMNs” value came out at 100 times. Besides, in test [4], the “development of carrageenan paw oedema (paw swelling)” value was “significantly inhibits development of the oedema”. Also, the “Agonist Activity” value on C5a receptor [2] (Table 5, cyclic molecules) is listed as “No”; on C5a receptor [2] (setting [9]), “No”. Moreover, the “increase in receptor-binding affinity over decapeptide C-terminus of C5a (1)” value at C5aR [3] is listed as 10^4.

`N=C(N)NCCC[C@@H]1NC(=O)[C@H](Cc2c[nH]c3ccccc23)NC(=O)[C@@H](CC2CCCCC2)NC(=O)[C@@H]2CCCN2C(=O)[C@@H](NC(=O)[C@@H](N)Cc2ccccc2)CCNC1=O` [Compound 15, F-[X^2PdChaWR]]: the IC50 on C5a receptor [1] is 0.0437 µM; on C5aR [3] (setting [10]), 0.316 µM; on C5aR [3] (Table 5, cyclic molecules, read-out: Receptor Affinity), 0.3 µM. For the same molecule, at C5a receptor [1] (in vitro on human PMNs), the “inhibition of the action of C5a and the binding of 125I-C5a to its receptor” value was “potent inhibitors at nM concentrations”. The “Agonist Activity” value on C5a receptor [2] (Table 5, cyclic molecules) was “No”.

For `CC(=O)N[C@@H](Cc1ccccc1)C(=O)N[C@H]1CCCCNC(=O)[C@H](CCCNC(=N)N)NC(=O)[C@H](Cc2c[nH]c3ccccc23)NC(=O)[C@@H](CC2CCCCC2)NC(=O)[C@@H]2CCCN2C1=O` [Compound 18], at C5a receptor [2] (Table 5, cyclic molecules), the “Agonist Activity” value was “No”.

In the case of `N=C(N)NCCC[C@H]1NC(=O)[C@H](Cc2c[nH]c3ccccc23)NC(=O)[C@@H](CC2CCCCC2)NC(=O)[C@@H]2CCCN2C(=O)[C@H](Cc2c[nH]c3ccccc23)NC(=O)[C@H](Cc2ccccc2)NC1=O` [Compound 19, [FWPdChaWr]] (cyclo(FWP[dCha]W[dR]); ring closure inferred), on C5aR [3] (50% inhibition in the binding of [125I]C5a to intact PMNs, mean ± SE), the “pD2 ± SE (binding)” value turned out to be 4.37 ± 0.36.

For the molecule `N=C(N)NCCC[C@H]1NC(=O)[C@H](Cc2c[nH]c3ccccc23)NC(=O)[C@@H](CC2CCCCC2)NC(=O)[C@@H]2CCCN2C(=O)[C@@H](NC(=O)[C@@H](N)Cc2ccccc2)CCCCNC1=O` [Compound 26, F-[KPdChaWr]], the IC50 at C5a receptor [1] was 2.82 µM; on C5aR [3] (setting [10]), 8.13 µM.

As to `N=C(N)NCCC[C@@H]1NC(=O)[C@H](Cc2c[nH]c3ccccc23)NC(=O)[C@@H](CC2CCCCC2)NC(=O)[C@@H]2CCCN2C(=O)[C@@H](NC(=O)[C@@H](N)Cc2ccccc2)CCCCNC1=O` [Compound 28, F-[KPdChaWR]], the IC50 was 0.204 µM on C5a receptor [1] and 0.316 µM at C5aR [3] (setting [10]).

Consider C5a12-20-ahxYSFKPMPLaR [Compound 6], for which the concentration for a half-maximal effect (EC50) at C5a receptor [5] is 0.7 µM; in the test on human fetal artery, 0.08 µM. Further, the IC50 on C5aR [6] (setting [11]) is 0.07 µM.

On to C5a37-46-ahxYSFKPMPLaR [Compound 5], for which the concentration for a half-maximal effect (EC50) at C5a receptor [5] is 5.9 µM; in the test on human fetal artery, 0.06 µM. In addition, at C5aR [6] (setting [11]), the IC50 was 0.7 µM.

For “C5a65-74 (ISHKDMQLGR) [Compound 1, decapeptide C-terminus of C5a]”, the EC50 with C5a receptor [5] and in the test on human fetal artery was over 1000 µM throughout. The IC50 with C5aR [6] (setting [11]) was over 1000 µM; in the test with C5aR [6] (literature values (Finch et al, 1997; Kawai et al, 1991), read-out: Receptor Affinity IC50), over 1000 µM.

On to F-[OPdChaWR], for which, in [7] (1 mg/kg i.v. 10 min prior to i.v. LPS, rats), the LPS-induced neutropenia result was “inhibits neutropenia”. The “LPS-induced changes in haematocrit” value in test [7] (0.03-10 mg/kg i.v., 10 min prior to LPS 1 mg/kg i.v., Wistar rats) was “inhibition of LPS-induced neutropenia and changes in haematocrit”. For the same molecule, in test [8], the C5a-induced neutropenia entry is reported as “inhibits C5a-induced neutropenia”.

“YSFKDMPLaR [Compound 3, C5a agonist analogue]”: the 50% effective concentration (EC50) is 72 µM at C5a receptor [5] and 0.5 µM in the test with human fetal artery. For the same molecule, at C5aR [6] (setting [11]), the IC50 is 3.7 µM.

“YSFKDMQLGR [Compound 2, C5a agonist analogue]”: the EC50 was 92 µM on C5a receptor [5] and 9.6 µM with human fetal artery. Further, the IC50 at C5aR [6] (setting [11]) was 1.3 µM.

B1: C5a: human recombinant C5a, 74 amino acid complement glycoprotein (protein)
chain: TLQKKIEEIAAKYKHSVVKKCCYDGACVNNDETCEQRAARISLGPRCIKAFTECCVVASQLRANISHKDMQLGR
For B1, the 50% effective concentration (EC50) in the test with C5a receptor [5] was 0.03 µM; in the test with human fetal artery it was 0.02 µM. Further, the “Agonist Activity” value with C5a receptor [2] (setting [9]) is listed as “Yes”. Besides, the IC50 with C5aR [6] (setting [11]) was 0.0006 µM.

Source of the values: patent publication US20130005644A1, “CYCLIC AGONISTS AND ANTAGONISTS OF C5A RECEPTORS AND G PROTEIN-COUPLED RECEPTORS” (PROMICS PTY LIMITED, priority 1997, published 2013).
